Like-named read-outs stand apart in the source and are kept apart here.
Experiments:
[1] = Metal-ligand stability constant; type: physicochemical; conditions: oxidized, vanadium(v) state; deduced using a thermodynamic cycle
Description: (§1) Any decomposition of CVBH under these conditions would be evident as a decrease in peak current and changes in reversibility, as the identity of the species present at the electrode evolved over time. […] This is in stark contrast to the anaerobic and anhydrous conditions that are necessary in handling other NRFB active materials. […] This occurs even in ostensibly anhydrous systems due to the presence of adventitious water, and is the result of ligand substitution, yielding a vanadyl (V═O) species that is nearly ubiquitous in aqueous vanadium(iv) coordination chemistry. It should be further noted that CVBH is stable in both the reduced, vanadium(iv), state (as-synthesized) and the oxidized, vanadium(v) state, with metal ligand stability constants of 8.2×10^21 and 2.6×10^23, respectively. While the former has been measured, the latter can be deduced using a thermodynamic cycle, constructed from published data for the vanadium(iv/v) reduction potentials of CVBH and aqueous, acidic vanadium ions, along with the metal-ligand stability constant of CVBH in the vanadium(iv) oxidation state (FIG. 4).

[2] = Cyclic voltammetry (formal potential, diffusion coefficient); type: physicochemical; conditions: for diffusion coefficient for the one-electron oxidation: 0.5 M TBAPF6, Randles-Sevcik fit
Method: (§2) Cyclic voltammetry was carried out in DMSO using a 3 mm glassy carbon electrode as working electrode, a Pt wire counter electrode, a silver wire pseudo reference electrode and tetrabutylammonium hexafluorophosphate as supporting […]. Ferrocene was used as an internal potential reference. Static cell cycling was carried out using graphite felt (Alfa Aesar, part #AA14630RR) which was heat-treated in a furnace at 250° C. under air, overnight, before use.
CV data with variable scan rates were used to determine the diffusion coefficient for the one-electron oxidation of CVBH^−2 by fitting with the Randles-Sevcik equation. In addition, to investigate the effect of solvent on this property, the analysis was carried out in propylene carbonate (PC).

[3] = Static cell cycling to ~80% state of charge; type: physicochemical; conditions: more than 90 cycles, 0.35 V and −0.35 V vs. open circuit
Method: as §2
As such, the behavior of CVBH during cycling to ˜80% state of charge was investigated by alternately applying potentials of 0.35 V and −0.35 V vs. open circuit to oxidize and reduce the compound, respectively. […] Some decrease in peak current over time was observed (FIG. 5B), however, it was restored after stirring was stopped for 20 minutes (FIG. 5B, dotted line).

Solubility in solvents = type: physicochemical; conditions: solvents other than DMSO and water
Description: Since the solubility of CVBH is low in solvents other than DMSO and water, investigation of the electrochemistry in PC necessitated the synthesis of the bis-tetramethylammonium (TMA) salt of vanadium bis-hydroxyiminodiacetate (VBH), which was characterized using FTIR and X-ray crystallography (FIG. 2). While the coordination sphere of the VBH dianion is unperturbed compared to that of CVBH, solubility is greatly altered with two diffuse TMA countercations compared to the Ca^+2 counter-cation of CVBH. Altering the cation(s) of VBH^2− is a way to tune solubility in various battery-relevant solvents and compatibility with an array of membrane/separator architectures and supporting electrolytes. These attributes are paramount to realization of high power and energy densities in NRFB systems and this strategy offers a promising avenue for optimization.

[4] = reduced, vanadium(iv) state; cited from earlier work
[5] = earlier study, sample contaminated by mono-sodium salt of the ligand; cited from earlier work
[6] = Exhaustive cycling using cyclic voltammetry (stability); type: physicochemical
Method: as §2
as §1, with “It should be further noted that CVBH is stable in both the reduced, vanadium(iv), state (as-synthesized) and the oxidized, vanadium(v) state, with metal ligand stability constants of 8.2×10^21 and 2.6×10^23, respectively.” left out

[7] = when oxidized to the 4+ state; cited from earlier work

metal ligand stability constant [1]	diffusion coefficient for the one-electron oxidation ([2]; DMSO)	diffusion coefficient for the one-electron oxidation ([2]; propylene carbonate (PC))	solubility (Solubility in solvents)	change in voltammogram after addition of water ([6]; 20% water (by volume) in the presence of oxygen)	Compound	formal potential (E°′=E1/2) ([2]; DMSO, ferrocene as internal standard)	change in CV before and after static cell cycling [3]	metal ligand stability constant [4]	formal potential, previously reported value [5] [V vs. SHE]	change in voltammogram on exhaustive CV cycling ([6]; over 800 cycles)	stability in the presence of water [7]
2.6×10^23	8.3×10^−7 cm^2·s^−1	5.6×10^−7 cm^2·s^−1	low	no change in voltammogram shape	O.O.O.O.O.O=C([O-])CN(O)CC(=O)[O-].O=C([O-])CN(O)CC(=O)[O-].[Ca].[V+4] [CVBH, Calcium(ii) vanadium(iv)bis-hydroxyiminodiacetate pentahydrate]	0.30 V vs standard hydrogen electrode (SHE)	no observed change in the shape of the CV	8.2×10^21	0.38	virtually no change in the shape of the voltammogram	–
–	–	–	–	–	CC(=O)/C=C(/C)O.CC(=O)/C=C(/C)O.CC(=O)/C=C(/C)O.[V] [V(acac)3]	–	–	–	–	–	rapidly decomposes
